Measurements reported in ChEMBL document CHEMBL5325422, “Design and synthesis of fascaplysin derivatives as inhibitors of FtsZ with potent antibacterial activity and mechanistic study” (Eur J Med Chem, 2023).
Activity calls are given as the source filed them. The calls are words filed in the database; no cut-off is given here.

What was measured:
Staphylococcus aureus [1] = test: Antibacterial activity against methicillin-resistant Staphylococcus aureus ATCC43300 assessed as log10 CFU reduction at MIC measured for 1 hr by time-killing assay; assay type: functional
Staphylococcus aureus [2] = test: Antibacterial activity against methicillin-resistant Staphylococcus aureus ATCC43300 assessed as bacterial growth inhibition incubated for 18 to 24 hrs by microbroth dilution method; assay type: functional; conditions: time 18-24 hrs
Streptococcus pneumoniae = test: Antibacterial activity against Streptococcus pneumoniae ATCC49619 assessed as bacterial growth inhibition incubated for 18 to 24 hrs by microbroth dilution method; assay type: functional; conditions: time 18-24 hrs
[3] = Cytotoxicity against mouse RAW264.7 cells assessed as cell survival at 12.5 ug/ml incubated for 24 hrs by CCK8 assay relative to control; assay type: toxicity, cell-based; conditions: at 12.5 µg/mL, read-out: Activity
[4] = biological target: T1, Cell division protein FtsZ (Escherichia coli K-12) (UniProt P0A9A6); test: Inhibition of recombinant Escherichia coli FtsZ expressed in Escherichia coli BL21 assessed as reduction in GTPase activity incubated for 30 mins by malachite green phosphate staining based assay; conditions: dose 0.02-0.64 µg/ml
T1 sequence (whole entry): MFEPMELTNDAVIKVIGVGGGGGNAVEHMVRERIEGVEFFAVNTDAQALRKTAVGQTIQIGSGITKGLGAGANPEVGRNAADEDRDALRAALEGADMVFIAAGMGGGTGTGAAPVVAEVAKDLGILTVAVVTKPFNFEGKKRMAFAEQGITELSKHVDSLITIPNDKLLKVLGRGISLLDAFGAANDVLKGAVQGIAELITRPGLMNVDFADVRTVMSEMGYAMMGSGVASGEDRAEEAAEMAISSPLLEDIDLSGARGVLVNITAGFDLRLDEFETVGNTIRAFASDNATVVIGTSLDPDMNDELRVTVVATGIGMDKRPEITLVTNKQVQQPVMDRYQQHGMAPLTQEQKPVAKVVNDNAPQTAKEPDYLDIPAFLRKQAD

Escherichia coli = test: Antibacterial activity against penicillin-susceptible Escherichia coli ATCC25922 assessed as bacterial growth inhibition incubated for 18 to 24 hrs by microbroth dilution method; assay type: functional; conditions: time 18-24 hrs
Bacillus subtilis [5] = test: Antibacterial activity against Bacillus subtilis BNCC336690 assessed as increase in cell length at 0.5 times MIC incubated for 4 hrs by microscopic analysis; assay type: functional, organism-based
[6] = Cytotoxicity against mouse RAW264.7 cells assessed as cell survival at 50 ug/ml incubated for 24 hrs by CCK8 assay relative to control; assay type: toxicity, cell-based; conditions: at 50 µg/mL, read-out: Activity
RAW264.7 = test: Cytotoxicity against mouse RAW264.7 cells >12.5 ug/ml incubated for 24 hrs by CCK8 assay; assay type: toxicity, cell-based; conditions: raw264.7, 24 h, dose > 12.5 µg/ml
Staphylococcus aureus [7] = test: Antibacterial activity against methicillin-resistant Staphylococcus aureus ATCC43300 assessed as log10 CFU reduction at 2 to 4 times MIC measured for 0.5 hrs by time-killing assay; assay type: functional
[8] = biological target: T1, Cell division protein FtsZ (Escherichia coli K-12); test: Inhibition of recombinant Escherichia coli FtsZ expressed in Escherichia coli BL21 assessed as induction of FtsZ polymerization incubated for 10 mins by light scattering assay; conditions: dose 1-4 µg/ml
[9] = Hemolytic activity in human erythrocytes assessed as release of hemoglobin level at 12.5 ug/ml incubated for 1 hr by absorbance based assay relative to control; assay type: toxicity, cell-based, Erythrocyte; conditions: at 12.5 µg/mL, read-out: Activity
[10] = biological target: T1, Cell division protein FtsZ (Escherichia coli K-12); test: Inhibition of recombinant Escherichia coli FtsZ expressed in Escherichia coli BL21 assessed as bundling of FtsZ filaments at 4 ug/ml incubated for 10 mins by TEM analysis; conditions: dose 4.0 µg/ml
Bacillus subtilis [11] = test: Antibacterial activity against Bacillus subtilis BNCC336690 assessed as bacterial growth inhibition incubated for 18 to 24 hrs by microbroth dilution method; assay type: functional; conditions: time 18-24 hrs
Staphylococcus aureus [12] = test: Antibacterial activity against drug-resistant Staphylococcus aureus ATCC43300 assessed as inhibition of resistance development at 0.5 times MIC after 25 passages incubated for 18 to 24 hrs by microbroth dilution method; assay type: functional, organism-based; conditions: time 18-24 hrs
[13] = Cytotoxicity against mouse RAW264.7 cells assessed as cell survival at 25 ug/ml incubated for 24 hrs by CCK8 assay relative to control; assay type: toxicity, cell-based; conditions: at 25 µg/mL, read-out: Activity
Staphylococcus aureus [14] = test: Antibacterial activity against methicillin-resistant Staphylococcus aureus ATCC43300 assessed as wrinkling cell surface at 4 times MIC incubated for 2 hrs by SEM analysis; assay type: functional, organism-based
Staphylococcus aureus [15] = test: Antibacterial activity against methicillin-resistant Staphylococcus aureus ATCC43300 assessed as filamentation on cell surface at 4 times MIC incubated for 2 hrs by SEM analysis; assay type: functional, organism-based

COc1ccccc1NC(=O)c1ccc2[nH]c3c4[n+](ccc3c2c1)-c1ccccc1C4=O.[Br-]
Activity (Staphylococcus aureus [1]): 2 log10CFU/ml
MIC (Staphylococcus aureus [2]): 0.049 µg/mL
MIC (Streptococcus pneumoniae): 0.049 µg/mL
viability at 24 h, 12.5 ug/ml [3]: 14.6%
inhibition [4]: Dose-Dependent Effect
MIC (Escherichia coli): > 200 µg/mL
Activity (Bacillus subtilis [5]): Active
viability at 24 h, 50 ug/ml [6]: 13.2%
Activity (RAW264.7): Toxic
Activity (Staphylococcus aureus [7]): 2 log10CFU/ml
inhibition [8]: Dose-Dependent Effect
hemolysis at 1 h, 12.5 ug/ml [9]: 0%
inhibition [10]: Active
MIC (Bacillus subtilis [11]): 0.024 µg/mL
inhibition (Staphylococcus aureus [12]): inactive
viability at 24 h, 25 ug/ml [13]: 12.8%
Activity (Staphylococcus aureus [14]): Active
Activity (Staphylococcus aureus [15]): Active

COc1cccc(NC(=O)c2ccc3[nH]c4c5[n+](ccc4c3c2)-c2ccccc2C5=O)c1.[Br-]
MIC (Staphylococcus aureus [2]): 0.39 µg/mL
MIC (Streptococcus pneumoniae): 0.39 µg/mL
MIC (Escherichia coli): > 200 µg/mL
MIC (Bacillus subtilis [11]): 0.195 µg/mL

Cc1ccccc1NC(=O)c1ccc2[nH]c3c4[n+](ccc3c2c1)-c1ccccc1C4=O.[Br-]
MIC (Staphylococcus aureus [2]): 25 µg/mL
MIC (Streptococcus pneumoniae): 50 µg/mL
MIC (Escherichia coli): > 200 µg/mL
MIC (Bacillus subtilis [11]): 12.5 µg/mL

COc1ccc(NC(=O)c2ccc3[nH]c4c5[n+](ccc4c3c2)-c2ccccc2C5=O)cc1.[Br-]
MIC (Staphylococcus aureus [2]): 0.39 µg/mL
MIC (Streptococcus pneumoniae): 0.39 µg/mL
MIC (Escherichia coli): > 200 µg/mL
MIC (Bacillus subtilis [11]): 0.39 µg/mL

CCCCCCc1ccc(NC(=O)c2ccc3[nH]c4c5[n+](ccc4c3c2)-c2ccccc2C5=O)cc1.[Br-]
MIC (Staphylococcus aureus [2]): 25 µg/mL
MIC (Streptococcus pneumoniae): 6.25 µg/mL
MIC (Escherichia coli): > 200 µg/mL
MIC (Bacillus subtilis [11]): 0.78 µg/mL

CC(C)c1ccccc1NC(=O)c1ccc2[nH]c3c4[n+](ccc3c2c1)-c1ccccc1C4=O.[Br-]
MIC (Staphylococcus aureus [2]): 12.5 µg/mL
MIC (Streptococcus pneumoniae): 50 µg/mL
MIC (Escherichia coli): > 200 µg/mL
MIC (Bacillus subtilis [11]): 6.25 µg/mL

CCCCNC(=O)c1ccc2[nH]c3c4[n+](ccc3c2c1)-c1ccccc1C4=O.[Br-]
MIC (Staphylococcus aureus [2]): 6.25 µg/mL
MIC (Streptococcus pneumoniae): 3.12 µg/mL
MIC (Escherichia coli): > 200 µg/mL
MIC (Bacillus subtilis [11]): 3.12 µg/mL

Cc1ccc(NC(=O)c2ccc3[nH]c4c5[n+](ccc4c3c2)-c2ccccc2C5=O)cc1.[Br-]
MIC (Staphylococcus aureus [2]): 0.78 µg/mL
MIC (Streptococcus pneumoniae): 0.39 µg/mL
MIC (Escherichia coli): > 200 µg/mL
MIC (Bacillus subtilis [11]): 0.195 µg/mL

CCCCCCNC(=O)c1ccc2[nH]c3c4[n+](ccc3c2c1)-c1ccccc1C4=O.[Br-]
MIC (Staphylococcus aureus [2]): 0.39 µg/mL
MIC (Streptococcus pneumoniae): 0.39 µg/mL
MIC (Escherichia coli): > 200 µg/mL
MIC (Bacillus subtilis [11]): 0.39 µg/mL
